Test results: paper PMC5537074 (Journal of medicinal chemistry, 2017)

How the values were obtained:
PPARγ = details: as compared to rosiglitazone; cited from earlier work
rodents = details: cited from earlier work
[1] = system: cultured cells (adipocyte differentiation); details: cultured cells treated with compound; cited from earlier work
T2DM patients = details: cited from earlier work
[2] = target: T1, human GAL4-PPARγ-Hinge-LBD (Homo sapiens, UniProt P37231); assay: Transactivation assay; assay type: cell-based; details: HEK293T cells, GAL4-PPARγ-Hinge-LBD / UAS-luciferase, 18 h incubation, doses 169 pM to 10 μM
T1 sequence (P37231 238-503 limits assumed): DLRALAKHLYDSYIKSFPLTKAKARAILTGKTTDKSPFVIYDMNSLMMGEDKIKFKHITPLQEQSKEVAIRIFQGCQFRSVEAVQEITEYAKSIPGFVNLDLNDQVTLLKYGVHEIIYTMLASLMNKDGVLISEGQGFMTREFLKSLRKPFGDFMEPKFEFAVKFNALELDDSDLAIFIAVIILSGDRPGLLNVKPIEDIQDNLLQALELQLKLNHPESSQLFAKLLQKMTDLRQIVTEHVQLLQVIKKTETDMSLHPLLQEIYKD

Molecule: O=S(=O)(Nc1cc(Cl)c(Oc2cnc3ccccc3c2)c(Cl)c1)c1ccc(Cl)cc1Cl [Compound 1, 2,4-dichloro-N-(3,5-dichloro-4-(quinolin-3-yloxy)phenyl)benzenesulfonamide]
- maximal transcriptional activation of reporter genes (PPARγ): approximately 30%
- lowers blood glucose levels (rodents; 0.3 mg/kg dose): over 30%
- total weight gain, heart weight gain, lung weight gain (rodents; compared with rosiglitazone administration): less total weight gain, heart weight gain, and lung weight gain
- Adipocyte differentiation [1]: not enhanced
- pharmacokinetic and pharmacodynamic properties (T2DM patients; Phase 1 studies (4 studies)): favorable pharmacokinetic and pharmacodynamic properties
- tolerability (T2DM patients; Phase 2a, multicenter, double blind, placebo controlled, T2DM patients): generally well tolerated

Molecule: CN(CCOc1ccc(CC2SC(=O)NC2=O)cc1)c1ccccn1 (stereo not drawn) [rosiglitazone]
- Adipocyte differentiation [1]: significant induction

Molecule: O=S(=O)(Nc1cc(Cl)c(Oc2cnc3ccccc3c2)c(Cl)c1)c1cccs1 [Compound 15, N-(3,5-dichloro-4-(quinolin-3-yloxy)phenyl)thiophene-2-sulfonamide]
- EC50 (nM) n=3 [2]: no activity

Molecule: N-(3,5-dichloro-4-(quinolin-3-yloxy)phenyl)-thiophene-2-carboxamide [Compound 7]
- EC50 (nM) n=3 [2]: no activity
